{
  "source": "paper PMC8708875",
  "about": "(Pharmaceutics, 2021)",
  "assay_type_in_all_cases": "cell-based, mouse",
  "key": {"[1]": {"test_system": "Glut4", "test": "GLUT4 translocation assay (subcellular fractions, Western blot)", "method": "C2C12 differentiated myotubes were starved with free-FBS low glucose DMEM for 3 h, and then treated with saline or 5 µM of BMS-536924 insulin receptor inhibitor (Sigma-Aldrich, Sao Paulo, Brazil) for 30 min. Next, C2C12 were incubated in the presence of either vehicle, insulin (100 nM) or Ric4 (100 µM) for 30 min. As described by Tortorella and Pilch, 2002, cells were washed three times with PBS, and homogenized with 40 strokes of a glass tissue grinder in buffer containing sucrose 255 mM, disodium 4 mM, EDTA 20 mM, 4-(2-hydroxyethyl)-1-piperazineethanesulfonic acid (HEPES) 10 mM, pH 7.4, leupeptin 10 µM, pepstatin 1µM, aprotinin 1 µM, phenylmethylsulfonyl fluoride (PMSF) 1 mM, and benzamidine 5 mM (HES buffer). The homogenate was centrifuged at 19,000× g for 20 min. The pellet was saved (P1). The supernatant was recovered and centrifuged at 40,000× g for 20 min. The pellet (MF1) was resuspended in HES buffer. The supernatant was further centrifuged at 180,000× g for 1.5 h and the pellet (MF2) was resuspended in HES buffer. Both pellets MF1 and MF2, referred to as microsomal fraction (MF) correspond to high- and low-density microsomes. The pellet from the first centrifugation (P1) was resuspended in HES buffer, layered onto a 1.12 M sucrose cushion in 20 mM HEPES and 1 mM disodium EDTA, and centrifuged at 100,000× g for 1 h. The pellet (nuclear/endoplasmic reticulum fraction -N/ER) was resuspended in a buffer containing 20 mM Tris (pH 7.4), 50 mM NaCl, 2% Nonidet P-40, 0.5% deoxycholate, 0.2% SDS, and the protease inhibitor cocktail (#P8340; Sigma Aldrich, SP, Brazil). The interphase of the sucrose cushion was collected and pelleted at 40,000× g for 20 min. This PM-containing pellet (PM) was resuspended in PBS plus protease inhibitors. All centrifugations were performed at 4 °C with a Beckman Coulter Ultracentrifuge. Total protein of all samples was determined using Pierce™ BCA Protein Assay Kit (ThermoFisher, Sao Paulo, Brazil). Proteins were submitted to Western blot analysis as described above, using as primary antibody anti-Glut4 (1:1000, Cell Signaling, Boston, MA, USA).\n(§1) Figure 4 Glucose uptake and GLUT4 translocation induced by Ric4 in C2C12 cells. C2C12 cells were previously incubated in serum-free and glucose-free DMEM medium, then incubated with HEPES buffer for 30 min and then incubated for a further 30 min in glucose-uptake buffer containing vehicle, Ric4 (100 µM), or insulin (100 nM) in the presence of ^3H-glucose (1 µCi/mL) or 2-NBDG (80 µM). After incubations cells were lysed with 50 μL of 0.1 N NaOH and fluorescence or radiation of aliquots from the lysate were measured (A). Epididymal adipose tissue explants (20–25 mg) were incubated in Krebs–Ringer bicarbonate buffer containing glucose 5.5 mM and 1 μCi/mL of ^3H-deoxyglucose supplemented with 2% fatty acid-free for 30 min at 37 °C in the presence or absence of insulin (100 nM) or Ric4 (100 µM). The explants were processed to evaluate the uptake of ^3H-deoxyglucose (B). Myotubes were previously incubated in serum-free and glucose-free DMEM medium and then treated with control vehicle PBS or Ric4 (100 µM) for 30 min. Proteins from subcellular fractions: N/ER (C), microsomal (D), plasma membrane (E), were isolated and the expression Glut4 was analyzed by Western blot. Images were quantified using ImageJ 1.49 software. The statistical comparisons were performed using analysis of variance (ANOVA), followed by ad-hoc Tukey’s test using GraphPad Prism software * p < 0.05; # p < 0.05; **** p < 0.0001."}, "[2]": {"test_system": "differentiated C2C12 cells", "test": "Glucose uptake in C2C12 myotubes", "conditions": "peptides 100 µM, insulin 100 nM; 30 min, 37 °C; 3H-glucose (1 µCi/mL) or 2-NBDG (80 µM)"}, "[3]": {"test_system": "epididymal adipose tissue explants", "test": "Glucose uptake in epididymal adipose tissue explants", "conditions": "Ric4 100 µM, insulin 100 nM; 3H-deoxyglucose 1 µCi/mL, Krebs-Ringer bicarbonate buffer, 37 °C", "method": "Glucose uptake was evaluated in adipose tissue explants from mice bearing or not deletion of insulin receptor in adipocytes essentially as previously described. Briefly, explants of epididymal adipose tissue (20–25 mg) were incubated in 1 mL of Krebs–Ringer bicarbonate buffer (in mmol/L): 118 NaCl, 4.8 KCl, 1.25 CaCl2, 1.2 KH2PO4, 1.2 MgSO4, 25 NaHCO3, and 5.5 glucose and 1 μCi/mL of ^3H-deoxyglucose (New England Radiochemicals, Boston, MA, USA) supplemented with 2% fatty acid-free BSA (Sigma, Oakville, ON, Canada), 7.4. Vials were incubated at 37 °C for […] in the presence or absence of insulin (100 nM) or Ric4 peptide (100 µM). After 30 min, explants were extensively washed and processed to evaluate the uptake of ^3H deoxyglucose as previously described.\nas §1"}, "[4]": {"conditions": "C2C12 myotubes, Ric4 100 µM, insulin 100 nM, 30 min, Western blot"}},
  "note": "Where two headings read alike, the source gives them in different places.",
  "data": [
    {"substance": "Insulin", "values": [
      {"measurement": "Glut4 presence in microsomal membranes", "setting": "[1]; [4]", "value": "not observed"},
      {"measurement": "translocation of Glut4 to plasma membrane", "setting": "[1]; [4]", "value": "induced translocation of Glut4 to plasma membrane"},
      {"measurement": "translocation of Glut4 to rough endoplasmic reticulum (RER) membranes (N/ER fraction)", "setting": "[1]; [4]", "value": "not observed"},
      {"measurement": "glucose uptake in differentiated C2C12 cells", "setting": "[2]", "value": "stimulate glucose uptake"},
      {"measurement": "glucose uptake in adipose tissue explants from C57BL6N WT mice", "setting": "[3]", "value": "stimulate glucose uptake"},
      {"measurement": "glucose uptake in adipose tissue explants from conditional knockout mice depleted from insulin receptor", "setting": "[3]", "value": "neither insulin nor Ric4 were capable of inducing glucose uptake"}
    ]},
    {"substance": "LASVSTVLTSKYR [Ric4, intracellular peptide derived from hemoglobin alpha subunit, last 13 C-terminal amino acids]", "values": [
      {"measurement": "Glut4 presence in microsomal membranes", "setting": "[1]", "value": "decreasing"},
      {"measurement": "translocation of Glut4 to plasma membrane", "setting": "[1]; [4]", "value": "induced translocation of Glut4 to plasma membrane"},
      {"measurement": "translocation of Glut4 to rough endoplasmic reticulum (RER) membranes (N/ER fraction)", "setting": "[1]; [4]", "value": "increased"},
      {"measurement": "glucose uptake in differentiated C2C12 cells", "setting": "[2]", "value": "stimulate glucose uptake"},
      {"measurement": "glucose uptake in adipose tissue explants from C57BL6N WT mice", "setting": "[3]", "value": "stimulate glucose uptake"},
      {"measurement": "glucose uptake in adipose tissue explants from conditional knockout mice depleted from insulin receptor", "setting": "[3]", "value": "neither insulin nor Ric4 were capable of inducing glucose uptake"}
    ]}
  ]
}
